Target: T1, hMrgpMRGPRX2 (Homo sapiens, UniProt Q96LB1)
T1 construct: expressed in transfected cells
T1 sequence (Q96LB1 1-330): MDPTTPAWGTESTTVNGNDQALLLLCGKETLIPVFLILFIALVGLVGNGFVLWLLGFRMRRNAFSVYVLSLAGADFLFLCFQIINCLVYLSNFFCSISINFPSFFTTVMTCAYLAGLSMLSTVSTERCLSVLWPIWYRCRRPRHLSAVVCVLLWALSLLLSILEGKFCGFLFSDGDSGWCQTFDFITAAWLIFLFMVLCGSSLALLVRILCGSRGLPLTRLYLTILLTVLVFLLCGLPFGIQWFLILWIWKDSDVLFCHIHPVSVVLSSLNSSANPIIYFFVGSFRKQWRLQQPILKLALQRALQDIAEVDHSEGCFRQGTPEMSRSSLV
Experiment: FLIPR intracellular calcium mobilization, antagonist activity in recombinant hMrgpMRGPRX2 expressing cells
Type: cell-based
Details: read-out: Human MrgprX2 Antagonist pIC50 (converted)
Text: Potent and selective hMrgpMRGPRX2 compounds have been generated from compounds identified during a high throughput screening (HTS) campaign and followed up with cycles of structure activity based medicinal chemistry efforts. These compounds were characterized in recombinant hMrgpMRGPRX2 expressing cells for their antagonist activity and the potency was confirmed in the human mast cell line LAD-2, where the target is endogenously expressed. The assays used to determine potencies are functional read-out looking at intracellular calcium mobilization using the FLIPR™ technology. In these FLIPR assays, we test the identified compounds using recombinant cellular systems expressing mouse MrgprB2, mouse MrgprA1, gerbil MrgpMRGPRX2 orthologue, Chinese hamster MrgpMRGPRX2 orthologue and cynomolgus monkey MrgpMRGPRX2 orthologue, respectively for orthologue activity.

IC50	Structure (SMILES)
79.4 nM	C[C@@H]1C[C@H]1C(=O)Nc1ccc(Oc2ccc(F)c(F)c2)cn1 (racemic) [Compound E048.1]
7.94 nM	CC1(C)C[C@H]1C(=O)Nc1ccc(Oc2ccc(F)c(F)c2)cn1 (single isomer, unassigned) [Compound E078]
102 nM	CC1(C)CC1C(=O)Nc1cnc(-c2cc(F)cc(F)c2)cn1 (single isomer, unassigned) [Compound E231, N-[5-(3,5-difluorophenyl)pyrazin-2-yl]-2,2-dimethyl-cyclopropanecarboxamide]
28.2 nM	CCN(C[C@@H](O)C(F)(F)F)C(=O)Nc1ccc(Oc2ccc(F)cc2F)cn1 (single isomer, unassigned) [Compound E267]
398 nM	CC(C)(C#N)C(=O)Nc1ccc(Oc2cccc(F)c2)cn1 [Compound E001, 2-cyano-N-[5-(3-fluorophenoxy)-2-pyridyl]-2-methyl-propanamide]
501 nM	CC(C)C(=O)Nc1ccc(Oc2ccccc2)cn1 [Compound E002]
316 nM	CC(C)C(=O)Nc1ccc(Oc2ccc(F)cc2)cn1 [Compound E003]
63.1 nM	CC(C)C(=O)Nc1ccc(Oc2cccc(F)c2)cn1 [Compound E004]
79.4 nM	CC(C)C(=O)Nc1ccc(Oc2ccccc2F)cn1 [Compound E005]
3160 nM	CC1(C(=O)Nc2ccc(Oc3cccc(F)c3)cn2)CCOCC1 [Compound E006]
2510 nM	CC1(C(=O)Nc2ccc(Oc3ccccc3F)cn2)CCOCC1 [Compound E007]
6.31 nM	CC(C)C(=O)Nc1ccc(Oc2cc(F)cc(F)c2)cn1 [Compound E008]
79.4 nM	CC(C)C(=O)Nc1ccc(Oc2cccc(F)c2F)cn1 [Compound E009]
39.8 nM	CC(C)C(=O)Nc1ccc(Oc2ccc(F)c(F)c2)cn1 [Compound E010]
6310 nM	CC1(C(=O)Nc2ccc(Oc3cccc(F)c3)cn2)CCOC1 (centres unmarked) [Compound E011]
398 nM	O=C(Nc1ccc(Oc2cccc(F)c2)cn1)C1(C(F)(F)F)CC1 [Compound E012]
794 nM	CC(O)(C(=O)Nc1ccc(Oc2cccc(F)c2)cn1)C(F)(F)F (centres unmarked) [Compound E013]

IC50	Structure (SMILES)
3980 nM	CC(C)(CO)C(=O)Nc1ccc(Oc2cccc(F)c2)cn1 [Compound E014]
25.1 nM	CC1(C(=O)Nc2ccc(Oc3cccc(Cl)c3)cn2)CCOCC1 [Compound E015]
25.1 nM	CC(C)C(=O)Nc1ccc(Oc2cccc(Cl)c2)cn1 [Compound E016]
79.4 nM	O=C(Nc1ccc(Oc2cc(F)cc(F)c2)cn1)C1CC1 [Compound E017]
6310 nM	CC(C)C(=O)Nc1ccc(Oc2cccc(C#N)c2)cn1 [Compound E018]
7940 nM	CC(C)C(=O)Nc1ccc(Oc2ccc(F)c(C#N)c2)cn1 [Compound E019]
10000 nM	N#Cc1cc(F)cc(Oc2ccc(NC(=O)C3CC3)nc2)c1 [Compound E020]
1580 nM	CC(C)C(=O)Nc1ccc(Oc2cc(F)cc(C#N)c2)cn1 [Compound E021]
10000 nM	CC(C)C(=O)Nc1ccc(Oc2ccnc(F)c2)cn1 [Compound E022]
3160 nM	N#CC1(C(=O)Nc2ccc(Oc3cc(F)cc(F)c3)cn2)CC1 [Compound E023]
2000 nM	O=C(Nc1ccc(Oc2ccc(F)c(F)c2)cn1)C1CCOCC1 [Compound E024]
2000 nM	CC(C)(C#N)C(=O)Nc1ccc(Oc2ccc(F)c(F)c2)cn1 [Compound E026]
3160 nM	CC1(C(=O)Nc2ccc(Oc3ccc(F)c(F)c3)cn2)CCOCC1 [Compound E027]
200 nM	O=C(Nc1ccc(Oc2ccc(F)c(F)c2)cn1)C1CC1(F)F (centres unmarked) [Compound E028]
3.98 nM	CC1(C)CC1C(=O)Nc1ccc(Oc2ccc(F)c(F)c2)cn1 (centres unmarked) [Compound E029]
7940 nM	O=C(CC1CCOCC1)Nc1ccc(Oc2ccc(F)c(F)c2)cn1 [Compound E030]
63.1 nM	O=C(Nc1ccc(Oc2ccc(F)c(F)c2)cn1)C1CCCC1 [Compound E031]

Structure (SMILES)	IC50
CC1(C)C(C(=O)Nc2ccc(Oc3ccc(F)c(F)c3)cn2)C1(C)C [Compound E025]	2.51 nM

Source: US20230027929A1, “MrgprX2 Antagonists and Uses Thereof” (Dermira, Inc., priority 2019, published 2023)
